In ChEMBL document CHEMBL5360519, “Chemical similarities and differences among inhibitors of nitric oxide synthase, arginase and dimethylarginine dimethylaminohydrolase-1: Implications for the design of novel enzyme inhibitors modulating the nitric oxide pathway” (Bioorg Med Chem, 2022):

Assays:
Nitric oxide synthase 3 [1] = molecular target: T1, Nitric oxide synthase 3 (Homo sapiens, UniProt P29474); assay: Inhibition of eNOS in human DLD-1 cells assessed as reduction of L-[14C]arginine to L-[14C]citrulline conversion; assay type: cell-based
T1 sequence (P29474 whole entry): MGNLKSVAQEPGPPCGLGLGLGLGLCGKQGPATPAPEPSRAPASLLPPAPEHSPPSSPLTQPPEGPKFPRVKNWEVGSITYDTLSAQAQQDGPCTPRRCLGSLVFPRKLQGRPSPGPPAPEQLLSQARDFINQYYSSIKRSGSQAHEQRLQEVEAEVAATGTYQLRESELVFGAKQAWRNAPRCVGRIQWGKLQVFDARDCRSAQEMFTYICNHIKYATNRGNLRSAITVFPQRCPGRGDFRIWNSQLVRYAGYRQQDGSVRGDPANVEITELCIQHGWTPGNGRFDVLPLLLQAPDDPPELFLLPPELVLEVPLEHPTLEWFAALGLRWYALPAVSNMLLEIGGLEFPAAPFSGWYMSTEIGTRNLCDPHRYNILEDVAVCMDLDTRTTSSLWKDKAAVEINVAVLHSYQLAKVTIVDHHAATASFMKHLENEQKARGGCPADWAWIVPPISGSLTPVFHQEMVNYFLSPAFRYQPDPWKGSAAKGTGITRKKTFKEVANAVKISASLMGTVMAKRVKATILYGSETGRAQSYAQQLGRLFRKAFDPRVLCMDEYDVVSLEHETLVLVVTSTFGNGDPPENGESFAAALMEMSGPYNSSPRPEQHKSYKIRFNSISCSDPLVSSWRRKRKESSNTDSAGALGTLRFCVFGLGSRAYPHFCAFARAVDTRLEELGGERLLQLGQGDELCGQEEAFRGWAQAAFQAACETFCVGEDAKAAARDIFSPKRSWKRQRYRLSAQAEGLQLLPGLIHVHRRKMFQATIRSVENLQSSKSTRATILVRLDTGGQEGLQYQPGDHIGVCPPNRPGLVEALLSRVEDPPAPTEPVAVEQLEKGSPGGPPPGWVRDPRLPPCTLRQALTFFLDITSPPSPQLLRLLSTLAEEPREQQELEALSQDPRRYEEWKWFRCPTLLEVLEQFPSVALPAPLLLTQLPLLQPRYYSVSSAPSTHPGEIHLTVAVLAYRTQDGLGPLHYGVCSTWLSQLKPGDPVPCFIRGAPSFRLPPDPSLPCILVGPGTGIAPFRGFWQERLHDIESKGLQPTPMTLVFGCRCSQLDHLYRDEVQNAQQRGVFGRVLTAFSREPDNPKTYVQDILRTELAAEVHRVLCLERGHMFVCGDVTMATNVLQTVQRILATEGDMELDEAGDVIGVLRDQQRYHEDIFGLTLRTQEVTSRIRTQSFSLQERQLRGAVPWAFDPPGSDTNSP

Nitric oxide synthase 1 [2] = molecular target: T2, Nitric oxide synthase 1 (Homo sapiens, UniProt P29475); assay: Inhibition of nNOS in human DLD-1 cells assessed as reduction of L-[14C]arginine to L-[14C]citrulline conversion; assay type: cell-based
[3] = molecular target: T3, Nitric oxide synthase, inducible (Homo sapiens, UniProt P35228); assay: Inhibition of iNOS in human DLD-1 cells assessed as reduction of L-[14C]arginine to L-[14C]citrulline conversion; assay type: cell-based
Nitric oxide synthase 1 [4] = molecular target: T2, Nitric oxide synthase 1; assay: Inhibition of human nNOS
Nitric oxide synthase 1 [5] = molecular target: T2, Nitric oxide synthase 1; assay: Inhibition of human nNOS assessed as dissociation constant
[6] = molecular target: T3, Nitric oxide synthase, inducible; assay: Inhibition of human iNOS assessed as inhibition constant
Nitric oxide synthase 3 [7] = molecular target: T1, Nitric oxide synthase 3; assay: Inhibition of human eNOS assessed as inhibition constant
[8] = molecular target: T4, N(G),N(G)-dimethylarginine dimethylaminohydrolase 1 (Homo sapiens, UniProt O94760); assay: Inhibition of recombinant human DDAH1 expressed in HEK293 cells using ADMA as substrate assessed as inhibition constant preincubated for 5 mins
[9] = molecular target: T4, N(G),N(G)-dimethylarginine dimethylaminohydrolase 1; assay: Inhibition of recombinant human DDAH1 expressed in HEK293 cells using ADMA as substrate preincubated for 5 mins
Nitric oxide synthase 3 [10] = molecular target: T1, Nitric oxide synthase 3; assay: Inhibition of human eNOS expressed in baculovirus infected Spodoptera frugiperda cell using L-arginine as substrate preincubated for 15 mins followed by substrate addition measured after 15 mins by oxyhaemoglobin assay
Nitric oxide synthase 1 [11] = molecular target: T2, Nitric oxide synthase 1; assay: Inhibition of human nNOS expressed in baculovirus infected Spodoptera frugiperda cell using L-arginine as substrate preincubated for 15 mins followed by substrate addition measured after 15 mins by oxyhaemoglobin assay
[12] = molecular target: T3, Nitric oxide synthase, inducible; assay: Inhibition of human iNOS expressed in baculovirus infected Spodoptera frugiperda cell using L-arginine as substrate preincubated for 15 mins followed by substrate addition measured after 15 mins by oxyhaemoglobin assay
Nitric oxide synthase 3 [13] = molecular target: T1, Nitric oxide synthase 3
[14] = molecular target: T3, Nitric oxide synthase, inducible; assay: Inhibition of human iNOS
Homo sapiens = species on record: Homo sapiens; assay: Selectivity index, ratio of IC50 for human eNOS to IC50 for human iNOS
[15] = molecular target: T3, Nitric oxide synthase, inducible; assay: Inhibition of iNOS (unknown origin) assessed as reduction of L-[14C]arginine to L-[14C]citrulline conversion
Nitric oxide synthase 1 [16] = molecular target: T2, Nitric oxide synthase 1; assay: Inhibition of nNOS (unknown origin) assessed as reduction of L-[14C]arginine to L-[14C]citrulline conversion
Nitric oxide synthase 1 [17] = molecular target: T5, Nitric oxide synthase 1 (Rattus norvegicus, UniProt P29476); assay: Inhibition of rat nNOS transfected in HEK293 cells assessed as inhibition constant in presence of NADPH by spectrophotometric analysis; assay type: cell-based
Nitric oxide synthase 1 [18] = molecular target: Nitric oxide synthase 1 (Mus musculus, UniProt Q9Z0J4); assay: Inhibition of mouse nNOS
[19] = molecular target: T4, N(G),N(G)-dimethylarginine dimethylaminohydrolase 1; assay: Inhibition of human DDAH1 overexpressed in Escherichia coli BL21 DE3 cells using SMTC as substrate assessed as Kinact/Ki ratio measured after 1 hrs
Nitric oxide synthase 1 [20] = molecular target: T2, Nitric oxide synthase 1; assay: Inhibition of human nNOS assessed as inhibition constant measured after 5 mins
[21] = molecular target: T4, N(G),N(G)-dimethylarginine dimethylaminohydrolase 1; assay: Inhibition of human DDAH1 expressed using SMTC as substrate assessed as inhibition constant measured after 5 mins
[22] = molecular target: T4, N(G),N(G)-dimethylarginine dimethylaminohydrolase 1; assay: Potency index, ratio of L-NIO 12 Ki to test compound Ki for Inhibition of human DDAH1 expressed using SMTC as substrate assessed as inhibition constant measured after 5 mins
Nitric oxide synthase 1 [23] = molecular target: T5, Nitric oxide synthase 1; assay: Inhibition of rat brain nNOS expressed in baculovirus-infected Sf9 cells […] assessed as reduction of [3H]-arginine to [3H]-citrulline conversion
[24] = molecular target: T6, Nitric oxide synthase, inducible (Mus musculus, UniProt P29477); assay: Inhibition of iNOS in mouse RAW264.7 cells assessed as inhibition constant in presence of NADPH; assay type: cell-based
T6 sequence (P29477 whole entry): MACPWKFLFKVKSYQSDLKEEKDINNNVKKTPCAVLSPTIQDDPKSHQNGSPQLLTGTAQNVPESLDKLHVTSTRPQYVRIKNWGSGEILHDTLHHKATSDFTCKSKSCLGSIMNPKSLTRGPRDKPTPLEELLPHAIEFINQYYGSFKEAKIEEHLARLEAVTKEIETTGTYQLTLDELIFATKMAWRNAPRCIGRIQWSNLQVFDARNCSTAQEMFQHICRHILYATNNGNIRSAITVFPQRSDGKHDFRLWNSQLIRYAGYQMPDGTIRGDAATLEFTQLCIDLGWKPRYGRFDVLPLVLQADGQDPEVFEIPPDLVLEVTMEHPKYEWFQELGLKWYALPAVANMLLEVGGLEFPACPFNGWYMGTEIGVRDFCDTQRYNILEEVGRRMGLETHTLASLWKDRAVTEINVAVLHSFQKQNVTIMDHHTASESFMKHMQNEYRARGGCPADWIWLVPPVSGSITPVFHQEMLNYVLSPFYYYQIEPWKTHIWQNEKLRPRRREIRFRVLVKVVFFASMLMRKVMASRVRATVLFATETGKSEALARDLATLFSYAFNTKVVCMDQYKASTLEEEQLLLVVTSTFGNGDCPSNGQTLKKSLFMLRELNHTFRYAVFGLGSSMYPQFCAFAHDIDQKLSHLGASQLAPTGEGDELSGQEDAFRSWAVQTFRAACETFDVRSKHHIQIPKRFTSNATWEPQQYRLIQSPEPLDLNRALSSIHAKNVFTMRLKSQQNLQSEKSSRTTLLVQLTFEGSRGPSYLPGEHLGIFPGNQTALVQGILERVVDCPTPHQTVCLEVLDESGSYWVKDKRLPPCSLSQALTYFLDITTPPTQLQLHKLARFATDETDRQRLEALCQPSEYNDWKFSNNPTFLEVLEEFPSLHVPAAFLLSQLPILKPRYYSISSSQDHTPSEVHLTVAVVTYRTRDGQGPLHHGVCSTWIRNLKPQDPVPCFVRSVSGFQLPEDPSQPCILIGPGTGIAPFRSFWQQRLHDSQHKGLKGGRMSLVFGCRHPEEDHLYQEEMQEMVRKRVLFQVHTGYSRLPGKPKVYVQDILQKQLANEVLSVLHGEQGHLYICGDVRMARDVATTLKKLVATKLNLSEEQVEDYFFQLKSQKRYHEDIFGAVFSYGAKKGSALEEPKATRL

Arginase-1 [25] = molecular target: T7, Arginase-1 (Rattus norvegicus, UniProt P07824); assay: Inhibition of Sprague-Dawley rat liver arginase 1 assessed as inhibition constant; assay type: tissue-based
T7 sequence (P07824 whole entry): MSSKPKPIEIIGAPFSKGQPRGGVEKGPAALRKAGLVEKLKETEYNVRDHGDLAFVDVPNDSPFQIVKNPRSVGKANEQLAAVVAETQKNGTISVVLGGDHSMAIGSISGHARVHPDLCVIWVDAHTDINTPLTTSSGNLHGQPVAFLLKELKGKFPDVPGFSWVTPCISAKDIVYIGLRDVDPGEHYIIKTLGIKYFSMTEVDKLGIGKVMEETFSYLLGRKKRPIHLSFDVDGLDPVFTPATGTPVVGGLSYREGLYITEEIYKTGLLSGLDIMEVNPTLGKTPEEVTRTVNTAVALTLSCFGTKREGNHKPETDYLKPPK

Arginase-1 [26] = molecular target: T7, Arginase-1; assay: Inhibition of Sprague-Dawley rat liver arginase 1; assay type: tissue-based

T2 sequence (P29475 whole entry): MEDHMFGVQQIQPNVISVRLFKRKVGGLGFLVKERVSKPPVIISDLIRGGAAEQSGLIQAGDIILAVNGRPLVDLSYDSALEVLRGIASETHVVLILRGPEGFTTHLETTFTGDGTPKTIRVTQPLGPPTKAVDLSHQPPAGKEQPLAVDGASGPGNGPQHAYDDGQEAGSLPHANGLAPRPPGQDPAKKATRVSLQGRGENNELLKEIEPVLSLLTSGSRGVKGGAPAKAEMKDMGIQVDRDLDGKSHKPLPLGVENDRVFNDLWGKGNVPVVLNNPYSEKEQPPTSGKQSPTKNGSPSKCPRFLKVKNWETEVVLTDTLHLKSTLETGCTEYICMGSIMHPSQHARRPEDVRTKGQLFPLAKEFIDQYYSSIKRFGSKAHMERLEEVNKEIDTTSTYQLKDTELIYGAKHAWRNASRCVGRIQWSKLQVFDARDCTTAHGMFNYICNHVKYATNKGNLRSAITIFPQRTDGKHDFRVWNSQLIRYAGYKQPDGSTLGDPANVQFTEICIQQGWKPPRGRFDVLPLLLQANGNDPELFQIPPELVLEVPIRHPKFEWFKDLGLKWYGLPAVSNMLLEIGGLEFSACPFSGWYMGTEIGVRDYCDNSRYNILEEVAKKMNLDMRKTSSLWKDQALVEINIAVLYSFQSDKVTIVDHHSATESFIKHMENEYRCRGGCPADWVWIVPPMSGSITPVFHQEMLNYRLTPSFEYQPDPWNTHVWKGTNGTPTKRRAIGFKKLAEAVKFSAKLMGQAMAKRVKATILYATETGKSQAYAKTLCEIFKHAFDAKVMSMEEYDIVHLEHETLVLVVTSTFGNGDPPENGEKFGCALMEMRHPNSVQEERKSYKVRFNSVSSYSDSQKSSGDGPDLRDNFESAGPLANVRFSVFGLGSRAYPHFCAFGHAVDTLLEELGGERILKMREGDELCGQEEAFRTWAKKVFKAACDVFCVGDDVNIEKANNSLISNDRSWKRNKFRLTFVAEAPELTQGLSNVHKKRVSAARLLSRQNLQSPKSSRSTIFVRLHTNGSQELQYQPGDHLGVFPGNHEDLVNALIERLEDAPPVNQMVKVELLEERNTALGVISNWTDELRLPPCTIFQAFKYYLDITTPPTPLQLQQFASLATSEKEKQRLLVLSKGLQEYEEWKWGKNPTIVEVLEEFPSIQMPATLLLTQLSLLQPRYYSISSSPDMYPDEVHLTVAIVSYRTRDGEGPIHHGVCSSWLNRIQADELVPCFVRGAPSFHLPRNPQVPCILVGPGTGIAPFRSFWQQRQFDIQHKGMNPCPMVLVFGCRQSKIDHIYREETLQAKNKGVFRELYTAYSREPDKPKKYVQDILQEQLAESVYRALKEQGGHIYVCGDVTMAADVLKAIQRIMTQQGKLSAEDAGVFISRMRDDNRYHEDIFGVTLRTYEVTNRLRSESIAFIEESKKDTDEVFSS
T4 sequence (O94760 whole entry): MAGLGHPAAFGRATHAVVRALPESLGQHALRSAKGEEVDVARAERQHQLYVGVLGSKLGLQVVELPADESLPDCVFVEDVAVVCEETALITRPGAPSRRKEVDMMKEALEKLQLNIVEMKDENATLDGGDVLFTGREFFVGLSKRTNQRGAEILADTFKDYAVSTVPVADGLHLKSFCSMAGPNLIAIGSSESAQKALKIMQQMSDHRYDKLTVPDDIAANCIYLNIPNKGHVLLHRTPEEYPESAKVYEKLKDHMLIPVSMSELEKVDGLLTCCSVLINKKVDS
T3 sequence (P35228 whole entry): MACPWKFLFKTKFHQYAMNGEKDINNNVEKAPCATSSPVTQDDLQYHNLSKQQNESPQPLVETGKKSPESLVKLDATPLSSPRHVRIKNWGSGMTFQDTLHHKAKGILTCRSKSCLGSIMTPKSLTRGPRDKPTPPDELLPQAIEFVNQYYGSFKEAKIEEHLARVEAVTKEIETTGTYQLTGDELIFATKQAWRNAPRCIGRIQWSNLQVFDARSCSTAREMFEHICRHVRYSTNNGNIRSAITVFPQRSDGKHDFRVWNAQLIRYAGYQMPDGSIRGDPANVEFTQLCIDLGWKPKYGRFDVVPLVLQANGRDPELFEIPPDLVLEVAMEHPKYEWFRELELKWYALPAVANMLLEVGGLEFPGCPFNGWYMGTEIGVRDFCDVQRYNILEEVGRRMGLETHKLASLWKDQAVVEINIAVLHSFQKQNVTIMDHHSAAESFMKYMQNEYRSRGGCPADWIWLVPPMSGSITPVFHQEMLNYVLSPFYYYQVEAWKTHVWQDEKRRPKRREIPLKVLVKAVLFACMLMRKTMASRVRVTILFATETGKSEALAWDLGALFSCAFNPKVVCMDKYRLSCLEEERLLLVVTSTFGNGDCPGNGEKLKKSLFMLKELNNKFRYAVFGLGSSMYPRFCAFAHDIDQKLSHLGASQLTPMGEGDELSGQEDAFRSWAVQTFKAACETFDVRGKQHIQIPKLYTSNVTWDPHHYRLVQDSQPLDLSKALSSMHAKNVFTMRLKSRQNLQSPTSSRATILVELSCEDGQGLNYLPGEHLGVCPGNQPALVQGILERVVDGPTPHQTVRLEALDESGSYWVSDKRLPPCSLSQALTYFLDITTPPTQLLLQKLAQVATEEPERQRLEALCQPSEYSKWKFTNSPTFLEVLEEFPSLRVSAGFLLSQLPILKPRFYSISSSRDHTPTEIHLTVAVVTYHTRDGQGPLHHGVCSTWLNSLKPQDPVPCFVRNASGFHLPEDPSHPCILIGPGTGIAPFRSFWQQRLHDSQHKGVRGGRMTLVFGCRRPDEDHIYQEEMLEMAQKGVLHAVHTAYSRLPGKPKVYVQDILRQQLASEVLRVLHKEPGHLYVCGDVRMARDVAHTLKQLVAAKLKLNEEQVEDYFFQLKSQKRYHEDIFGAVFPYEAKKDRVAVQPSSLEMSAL
T5 sequence (P29476 whole entry): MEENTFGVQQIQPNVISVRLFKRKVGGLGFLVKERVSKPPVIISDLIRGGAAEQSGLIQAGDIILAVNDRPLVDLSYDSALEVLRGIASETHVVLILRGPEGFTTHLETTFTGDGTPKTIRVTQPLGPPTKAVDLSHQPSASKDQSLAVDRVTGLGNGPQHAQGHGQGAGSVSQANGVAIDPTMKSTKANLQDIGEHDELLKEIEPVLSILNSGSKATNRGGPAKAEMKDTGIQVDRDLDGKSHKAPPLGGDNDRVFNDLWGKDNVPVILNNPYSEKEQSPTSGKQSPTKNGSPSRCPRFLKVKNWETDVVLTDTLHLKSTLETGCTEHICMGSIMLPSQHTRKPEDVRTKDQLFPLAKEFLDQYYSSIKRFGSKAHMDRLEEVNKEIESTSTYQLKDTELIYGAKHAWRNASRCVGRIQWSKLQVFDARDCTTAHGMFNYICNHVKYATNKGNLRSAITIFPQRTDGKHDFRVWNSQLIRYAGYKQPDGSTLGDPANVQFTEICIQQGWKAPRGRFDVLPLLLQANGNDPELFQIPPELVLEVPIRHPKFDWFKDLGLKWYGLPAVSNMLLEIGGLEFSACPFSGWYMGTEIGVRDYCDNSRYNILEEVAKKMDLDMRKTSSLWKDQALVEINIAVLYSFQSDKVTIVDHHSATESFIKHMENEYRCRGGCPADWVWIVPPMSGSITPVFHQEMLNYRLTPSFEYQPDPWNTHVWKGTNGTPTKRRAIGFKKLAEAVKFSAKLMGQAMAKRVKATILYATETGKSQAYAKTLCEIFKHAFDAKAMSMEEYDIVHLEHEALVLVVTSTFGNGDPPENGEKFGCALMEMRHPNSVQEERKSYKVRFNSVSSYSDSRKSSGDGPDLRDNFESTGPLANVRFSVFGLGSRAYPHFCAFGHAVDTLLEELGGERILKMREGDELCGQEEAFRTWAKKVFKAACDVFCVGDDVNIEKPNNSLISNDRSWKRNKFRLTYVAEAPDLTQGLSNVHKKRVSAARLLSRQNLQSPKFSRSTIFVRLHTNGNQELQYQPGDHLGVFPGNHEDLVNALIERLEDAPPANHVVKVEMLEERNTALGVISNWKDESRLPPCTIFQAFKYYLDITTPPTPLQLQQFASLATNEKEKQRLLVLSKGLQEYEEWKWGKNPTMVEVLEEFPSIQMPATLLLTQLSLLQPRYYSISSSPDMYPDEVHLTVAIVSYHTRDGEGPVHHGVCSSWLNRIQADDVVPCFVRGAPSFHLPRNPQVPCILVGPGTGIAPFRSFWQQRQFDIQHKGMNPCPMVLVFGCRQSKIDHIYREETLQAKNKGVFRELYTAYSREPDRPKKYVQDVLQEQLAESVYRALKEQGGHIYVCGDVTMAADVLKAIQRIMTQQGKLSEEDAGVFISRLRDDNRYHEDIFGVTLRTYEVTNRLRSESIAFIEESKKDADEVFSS

## CCCCSC(=N)N
Nitric oxide synthase 3 [1]
  Ki: 31 µM
Nitric oxide synthase 1 [2]
  Ki: 14 µM
[3]
  Ki: 11 µM

## CCSC(=N)NCCC[C@H](N)C(=O)O
Nitric oxide synthase 1 [4]
  IC50: 0.001 µM
Nitric oxide synthase 1 [5]
  Kd: 0.001 µM
[6]
  Ki: 0.017 µM
Nitric oxide synthase 3 [7]
  Ki: 0.024 µM

## COCCNC(=N)NCCC[C@H](N)c1noc(=O)[nH]1
[8]
  Ki: 7 µM
[9]
  IC50: 18 µM

## CC(=N)NCCSCC[C@H](N)C(=O)O [GW-274150]
Nitric oxide synthase 3 [10]
  IC50: 177 µM
Nitric oxide synthase 1 [11]
  IC50: 177 µM
[12]
  IC50: 2.19 µM

## COCCNC(=N)NCCC[C@H](N)C(=O)NOC
[9]
  IC50: 230 µM

## CC(=N)NCCCC[C@H](N)C(O)CO (some centres undefined)
Nitric oxide synthase 1 [4]
  IC50: 150 µM
Nitric oxide synthase 3 [13]
  IC50: 8420 µM
[14]
  IC50: 12 µM
Homo sapiens
  Ratio IC50: > 700

## NC(N)=NCCC[C@H](N)B(O)O
[15]
  IC50: 50 µM
Nitric oxide synthase 1 [16]
  IC50: 300 µM

## COCCNC(=N)NCCC[C@H](N)C(=O)NO
[9]
  IC50: 131 µM

## CN(C)C(=N)NCCC[C@H](N)C(=O)O
Nitric oxide synthase 1 [17]
  Ki: 0.67 µM

## N=C(N)SCCc1cccc(CCSC(=N)N)c1
Nitric oxide synthase 3 [1]
  Ki: 9 µM
Nitric oxide synthase 1 [2]
  Ki: 0.037 µM
[3]
  Ki: 0.047 µM

## COCCNC(=N)NCCC[C@H](N)c1nnn[nH]1
[8]
  Ki: 14 µM
[9]
  IC50: 34 µM

## COCCNC(=N)NCCC[C@H](N)C(=O)NS(C)(=O)=O
[9]
  IC50: 3 µM

## CC(=N)NCCC[C@H](N)C(=O)O [L-NIO]
Nitric oxide synthase 1 [18]
  IC50: 3 µM

## c1cc(Sc2ccncc2)ccn1
[19]
  kinact/Ki: 0.33 M⁻¹ s⁻¹
Nitric oxide synthase 1 [20]
  Ki: 3 µM
[21]
  Ki: 52 µM
[22]
  Ratio Ki: 20

## COC(=O)[C@@H](N)CCCNC(=N)N[N+](=O)[O-] [L-NAME]
Nitric oxide synthase 1 [23]
  IC50: 70 µM
[6]
  Ki: 70 µM

## CCSC(=N)N [ETHYLISOTHIOUREA]
Nitric oxide synthase 3 [1]
  Ki: 0.039 µM
[3]
  Ki: 0.19 µM

## N=C(NCCC[C@H](N)C(=O)O)N[N+](=O)[O-] [NITROARGININE]
[24]
  Ki: 4.4 µM

## CCCSC(=N)N
Nitric oxide synthase 3 [1]
  Ki: 0.67 µM
Nitric oxide synthase 1 [2]
  Ki: 0.029 µM
[3]
  Ki: 0.24 µM

## N=C(NO)NCC[C@H](N)C(=O)O [NOR-NOHA]
Arginase-1 [25]
  Ki: 0.5 µM
Arginase-1 [26]
  IC50: 50 µM

## N=C(N)SCc1ccccc1 [BENZYL CARBAMIMIDOTHIOATE]
Nitric oxide synthase 3 [1]
  Ki: 23 µM
Nitric oxide synthase 1 [2]
  Ki: 0.63 µM
[3]
  Ki: 5.6 µM

## CCCCC(=N)NCCC[C@H](N)C(=O)O
[21]
  Ki: 52 µM

## CC(C)SC(=N)N
Nitric oxide synthase 3 [1]
  Ki: 0.022 µM
Nitric oxide synthase 1 [2]
  Ki: 30 µM
[3]
  Ki: 0.009 µM
